In ChEMBL document CHEMBL4665621, “The discovery of VU0652957 (VU2957, Valiglurax): SAR and DMPK challenges en route to an mGlu PAM development candidate” (Bioorg Med Chem Lett, 2019):

Experiments:
[1] = molecular target: T1, Metabotropic glutamate receptor 4 (Homo sapiens, UniProt Q14833); assay: Positive allosteric modulator activity at human mGlu4 receptor/Gqi5 in presence of EC20 glutamate by calcium mobilization assay; type: functional
[2] = molecular target: T1, Metabotropic glutamate receptor 4; assay: Positive allosteric modulator activity at human mGlu4 receptor/Gqi5 assessed as maximum activity at 30 uM by calcium mobilization assay relative to glutamic acid; type: functional; conditions: filed as positive allosteric modulator
Rattus norvegicus [3] = assay: Reversal of haloperidol-induced catalepsy in rat assessed as reduction in catalepsy at 3 mg/kg, po dosed along with 1.5 mg/kg haloperidol relative to untreated control; type: functional; design: scale not given: the % may be the effect or the level left
[4] = Brain to plasma partition coefficient, Kp of the compound in Sprague-Dawley rat at 0.20 to 0.25 mg/kg, iv cassette dose measured at 0.25 hrs; type: ADME, organism-based; conditions: dose 0.20-0.25 mg/kg
[5] = Protein binding in rat plasma assessed as unbound fraction; type: ADME, cell-free
Cytochrome P450 3A4 = Cytochrome P450 3A4 (Homo sapiens, UniProt P08684); assay: Inhibition of CYP3A4 (unknown origin); type: ADME
Cytochrome P450 2D6 = Cytochrome P450 2D6 (Homo sapiens, UniProt P10635); assay: Inhibition of CYP2D6 (unknown origin); type: ADME
[6] = Protein binding in human plasma assessed as unbound fraction; type: ADME, cell-free
Cytochrome P450 2C9 = Cytochrome P450 2C9 (Homo sapiens, UniProt P11712); assay: Inhibition of CYP2C9 (unknown origin); type: ADME
Cytochrome P450 1A2 = molecular target: T2, Cytochrome P450 1A2 (Homo sapiens, UniProt P05177); assay: Inhibition of CYP1A2 (unknown origin); type: ADME
T2 sequence (P05177 whole entry): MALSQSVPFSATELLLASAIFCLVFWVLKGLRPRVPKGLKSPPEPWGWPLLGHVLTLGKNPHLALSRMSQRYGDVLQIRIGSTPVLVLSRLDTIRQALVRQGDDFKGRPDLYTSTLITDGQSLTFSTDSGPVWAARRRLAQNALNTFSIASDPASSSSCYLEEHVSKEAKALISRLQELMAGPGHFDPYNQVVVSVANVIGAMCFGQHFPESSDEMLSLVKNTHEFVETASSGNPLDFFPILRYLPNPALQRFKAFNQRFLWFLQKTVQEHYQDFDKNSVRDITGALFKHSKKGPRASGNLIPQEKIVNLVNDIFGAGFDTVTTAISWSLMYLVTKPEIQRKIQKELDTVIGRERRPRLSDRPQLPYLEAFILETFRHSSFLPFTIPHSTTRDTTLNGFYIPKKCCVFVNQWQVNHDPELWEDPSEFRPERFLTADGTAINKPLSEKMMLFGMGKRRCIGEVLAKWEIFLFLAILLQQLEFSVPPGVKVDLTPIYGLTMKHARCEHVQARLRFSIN

[7] = Half life in rat; type: ADME; conditions: in vivo
[8] = Volume of distribution at steady state in rat; type: ADME; conditions: in vivo
[9] = Fraction unbound in rat brain homogenate; type: ADME, tissue-based
[10] = Hepatic clearance in human; type: ADME
[11] = molecular target: Metabotropic glutamate receptor 4 (Rattus norvegicus, UniProt P31423); assay: Positive allosteric modulator activity at rat mGlu4 receptor/Gqi5 in presence of EC20 glutamate by calcium mobilization assay; type: functional
Cytochrome P450 2C19 = Cytochrome P450 2C19 (Homo sapiens, UniProt P33261); assay: Inhibition of CYP2C19 (unknown origin); type: ADME
[12] = molecular target: Metabotropic glutamate receptor 4 (Rattus norvegicus) (UniProt P31423); assay: Positive allosteric modulator activity at rat mGlu4 receptor/Gqi5 assessed as maximum activity by calcium mobilization assay relative to glutamic acid; type: functional; conditions: filed as positive allosteric modulator
Rattus norvegicus [13] = assay: Reversal of haloperidol-induced catalepsy in po dosed rat assessed as minimum effective dose; type: functional; conditions: read-out: MED

T1 sequence (Q14833 whole entry): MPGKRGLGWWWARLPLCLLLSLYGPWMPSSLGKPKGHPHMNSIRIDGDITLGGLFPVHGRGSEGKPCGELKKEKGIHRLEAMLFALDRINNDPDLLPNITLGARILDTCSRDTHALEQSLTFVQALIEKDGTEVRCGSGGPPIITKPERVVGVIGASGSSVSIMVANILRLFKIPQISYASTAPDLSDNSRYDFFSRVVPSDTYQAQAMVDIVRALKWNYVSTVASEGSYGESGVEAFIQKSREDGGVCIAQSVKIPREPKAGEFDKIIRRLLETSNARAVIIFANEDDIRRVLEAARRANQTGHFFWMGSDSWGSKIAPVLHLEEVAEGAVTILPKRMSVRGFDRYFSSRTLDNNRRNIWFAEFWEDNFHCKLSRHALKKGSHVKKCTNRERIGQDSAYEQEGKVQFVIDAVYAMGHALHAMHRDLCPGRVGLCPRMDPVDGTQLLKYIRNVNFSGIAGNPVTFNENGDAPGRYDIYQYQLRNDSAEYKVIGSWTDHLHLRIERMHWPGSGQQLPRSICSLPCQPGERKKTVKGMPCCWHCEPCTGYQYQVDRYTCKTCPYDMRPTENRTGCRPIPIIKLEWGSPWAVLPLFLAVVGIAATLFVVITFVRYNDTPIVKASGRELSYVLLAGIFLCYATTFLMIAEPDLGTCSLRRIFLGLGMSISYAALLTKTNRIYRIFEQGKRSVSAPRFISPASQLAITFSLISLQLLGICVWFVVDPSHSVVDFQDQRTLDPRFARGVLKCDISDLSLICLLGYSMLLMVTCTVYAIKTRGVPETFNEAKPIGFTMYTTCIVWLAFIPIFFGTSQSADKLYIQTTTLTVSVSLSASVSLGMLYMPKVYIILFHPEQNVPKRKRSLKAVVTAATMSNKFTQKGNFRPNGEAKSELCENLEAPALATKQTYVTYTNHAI
Sequence of Cytochrome P450 2C9 (P11712 whole entry): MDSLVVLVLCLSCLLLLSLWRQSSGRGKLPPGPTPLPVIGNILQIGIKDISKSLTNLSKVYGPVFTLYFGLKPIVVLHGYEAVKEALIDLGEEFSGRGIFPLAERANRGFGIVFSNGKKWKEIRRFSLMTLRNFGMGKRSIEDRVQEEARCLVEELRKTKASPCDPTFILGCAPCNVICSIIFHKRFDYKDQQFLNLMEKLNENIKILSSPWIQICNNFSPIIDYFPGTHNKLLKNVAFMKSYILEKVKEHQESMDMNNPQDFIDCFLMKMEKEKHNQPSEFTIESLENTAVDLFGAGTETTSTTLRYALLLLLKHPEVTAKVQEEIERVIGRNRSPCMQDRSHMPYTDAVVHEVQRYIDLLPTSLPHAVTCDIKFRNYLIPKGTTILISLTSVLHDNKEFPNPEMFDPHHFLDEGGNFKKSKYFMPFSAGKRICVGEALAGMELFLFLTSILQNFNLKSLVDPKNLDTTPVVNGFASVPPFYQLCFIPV
Sequence of Cytochrome P450 2D6 (P10635 whole entry): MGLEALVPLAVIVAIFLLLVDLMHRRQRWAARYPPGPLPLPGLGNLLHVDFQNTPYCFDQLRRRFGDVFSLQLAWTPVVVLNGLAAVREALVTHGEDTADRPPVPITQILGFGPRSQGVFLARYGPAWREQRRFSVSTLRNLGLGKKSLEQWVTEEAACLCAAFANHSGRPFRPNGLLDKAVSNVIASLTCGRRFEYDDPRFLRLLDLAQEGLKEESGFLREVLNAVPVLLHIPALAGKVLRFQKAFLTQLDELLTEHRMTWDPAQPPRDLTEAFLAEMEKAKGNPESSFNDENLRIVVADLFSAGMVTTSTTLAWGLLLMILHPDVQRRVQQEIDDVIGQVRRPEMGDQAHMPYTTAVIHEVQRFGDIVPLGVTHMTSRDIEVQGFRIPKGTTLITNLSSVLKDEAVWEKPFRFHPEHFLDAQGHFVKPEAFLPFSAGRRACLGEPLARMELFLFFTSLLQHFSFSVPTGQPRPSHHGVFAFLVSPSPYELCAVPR
Sequence of Cytochrome P450 3A4 (P08684 whole entry): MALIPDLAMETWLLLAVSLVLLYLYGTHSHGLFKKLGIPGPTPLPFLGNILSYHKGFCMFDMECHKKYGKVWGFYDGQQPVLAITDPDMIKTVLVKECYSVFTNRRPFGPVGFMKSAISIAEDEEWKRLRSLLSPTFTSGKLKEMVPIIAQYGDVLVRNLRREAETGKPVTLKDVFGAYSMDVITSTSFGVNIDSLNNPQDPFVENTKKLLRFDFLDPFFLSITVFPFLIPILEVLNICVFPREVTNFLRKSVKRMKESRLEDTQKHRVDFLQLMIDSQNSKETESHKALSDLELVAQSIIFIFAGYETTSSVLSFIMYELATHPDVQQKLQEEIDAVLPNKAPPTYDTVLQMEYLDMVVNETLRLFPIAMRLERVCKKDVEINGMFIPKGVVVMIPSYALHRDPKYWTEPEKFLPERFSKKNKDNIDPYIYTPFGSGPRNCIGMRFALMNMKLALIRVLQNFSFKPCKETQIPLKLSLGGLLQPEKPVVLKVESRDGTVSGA
Sequence of Cytochrome P450 2C19 (P33261 whole entry): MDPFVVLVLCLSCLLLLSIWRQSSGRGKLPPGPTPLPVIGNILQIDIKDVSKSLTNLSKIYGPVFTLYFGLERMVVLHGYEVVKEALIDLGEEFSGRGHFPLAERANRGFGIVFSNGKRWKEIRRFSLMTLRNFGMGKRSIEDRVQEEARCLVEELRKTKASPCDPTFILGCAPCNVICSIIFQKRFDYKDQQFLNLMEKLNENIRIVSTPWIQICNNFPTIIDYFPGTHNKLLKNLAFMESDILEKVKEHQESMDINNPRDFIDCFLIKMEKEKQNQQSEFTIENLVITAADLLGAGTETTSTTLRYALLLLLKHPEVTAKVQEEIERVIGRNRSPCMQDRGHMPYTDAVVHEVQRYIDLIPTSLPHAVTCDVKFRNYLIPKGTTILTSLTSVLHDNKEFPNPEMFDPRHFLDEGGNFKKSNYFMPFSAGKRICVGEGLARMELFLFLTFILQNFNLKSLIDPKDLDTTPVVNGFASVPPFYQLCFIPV
Sequence of Metabotropic glutamate receptor 4 (Rattus norvegicus) (P31423 whole entry): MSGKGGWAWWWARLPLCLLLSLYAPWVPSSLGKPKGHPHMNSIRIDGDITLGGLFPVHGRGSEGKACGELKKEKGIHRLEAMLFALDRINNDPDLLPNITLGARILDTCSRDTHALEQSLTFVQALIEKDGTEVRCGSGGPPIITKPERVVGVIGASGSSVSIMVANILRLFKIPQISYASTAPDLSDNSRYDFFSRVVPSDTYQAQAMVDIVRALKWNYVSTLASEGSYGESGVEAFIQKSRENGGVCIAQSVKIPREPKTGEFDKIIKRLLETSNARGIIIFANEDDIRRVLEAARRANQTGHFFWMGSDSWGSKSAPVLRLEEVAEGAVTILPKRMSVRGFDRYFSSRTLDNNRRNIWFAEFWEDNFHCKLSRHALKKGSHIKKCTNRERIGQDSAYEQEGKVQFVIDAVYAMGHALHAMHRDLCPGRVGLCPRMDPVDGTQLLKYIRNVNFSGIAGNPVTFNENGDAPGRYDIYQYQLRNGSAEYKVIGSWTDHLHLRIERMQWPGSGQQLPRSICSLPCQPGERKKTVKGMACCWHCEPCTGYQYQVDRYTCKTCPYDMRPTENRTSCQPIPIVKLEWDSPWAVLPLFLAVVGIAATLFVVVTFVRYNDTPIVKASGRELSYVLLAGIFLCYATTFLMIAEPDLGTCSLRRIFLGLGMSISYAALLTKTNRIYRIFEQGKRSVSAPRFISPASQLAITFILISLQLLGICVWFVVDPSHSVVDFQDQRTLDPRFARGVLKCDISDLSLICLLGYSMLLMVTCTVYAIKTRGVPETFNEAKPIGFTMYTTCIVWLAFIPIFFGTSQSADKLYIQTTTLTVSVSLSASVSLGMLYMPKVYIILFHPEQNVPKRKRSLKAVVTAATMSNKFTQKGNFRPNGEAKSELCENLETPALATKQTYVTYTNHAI
Sequence of Metabotropic glutamate receptor 4 (Rattus norvegicus, UniProt P31423) (P31423 whole entry): as above

CC(C)Cn1ccc2cc(Nc3n[nH]c4cccnc34)ccc2c1=O
EC50 [1]: 0.685 µM
Activity [2]: 24%

COCCNc1nccc2cc(Nc3n[nH]c4cccnc34)ccc12
EC50 [1]: 0.121 µM
Activity [2]: 89%

c1cnc2c(Nc3ccc4ccncc4c3)n[nH]c2c1
EC50 [1]: > 10 µM

FC(F)c1nccc2cc(Nc3n[nH]c4cccnc34)ccc12
Activity (Rattus norvegicus [3]): 45%
Kp at 0.25 h [4]: 2.2
EC50 [1]: 0.008 µM
Activity [2]: 67%
Fu [5]: 0.032 fraction
IC50 (Cytochrome P450 3A4): > 30 µM
IC50 (Cytochrome P450 2D6): > 30 µM
Fu [6]: 0.03 fraction
IC50 (Cytochrome P450 2C9): 30 µM
IC50 (Cytochrome P450 1A2): 0.3 µM

c1cnc2c(Nc3ccc4c(C5CC5)nccc4c3)n[nH]c2c1
EC50 [1]: 0.071 µM
Activity [2]: 86%
IC50 (Cytochrome P450 1A2): < 1 µM

Cc1cc(C)n(-c2nccc3cc(Nc4n[nH]c5cccnc45)ccc23)n1
EC50 [1]: 0.726 µM
Activity [2]: 70%

c1cnc2c(Nc3ccc4cnccc4n3)n[nH]c2c1
EC50 [1]: > 10 µM

CCN(CC)c1nccc2cc(Nc3n[nH]c4cccnc34)ccc12
EC50 [1]: 0.164 µM
Activity [2]: 95%

CC(c1nccc2cc(Nc3n[nH]c4cccnc34)ccc12)C(F)(F)F (stereo not given)
Kp at 0.25 h [4]: 2.2
EC50 [1]: 0.036 µM
Activity [2]: 100%

c1cnc2cc(Nc3n[nH]c4cccnc34)ccc2c1
EC50 [1]: > 10 µM

O=c1c2ccc(Nc3n[nH]c4cccnc34)cc2ccn1CC1CCC1
EC50 [1]: 0.653 µM
Activity [2]: 31%

c1cnc2c(Nc3ccc4ncncc4c3)n[nH]c2c1
EC50 [1]: > 10 µM

CN1CCN(c2nccc3cc(Nc4n[nH]c5cccnc45)ccc23)CC1
EC50 [1]: 1.29 µM
Activity [2]: 72%

FC(F)(F)C1CCCCN1c1nccc2cc(Nc3n[nH]c4cccnc34)ccc12 (stereo not given)
EC50 [1]: 0.306 µM
Activity [2]: 57%

O=c1[nH]ccc2cc(Nc3n[nH]c4cccnc34)ccc12
EC50 [1]: 0.264 µM
Activity [2]: 77%
IC50 (Cytochrome P450 3A4): > 30 µM
IC50 (Cytochrome P450 2C9): > 30 µM
IC50 (Cytochrome P450 1A2): 3.3 µM

c1ccc(CNc2nccc3cc(Nc4n[nH]c5cccnc45)ccc23)cc1
EC50 [1]: 1.36 µM
Activity [2]: 58%

FC(F)(F)c1nccc2cc(Nc3n[nH]c4nccnc34)ccc12
Activity (Rattus norvegicus [3]): 24%
EC50 [1]: 0.051 µM
Activity [2]: 83%
half-life [7]: < 1 h

CCc1nccc2cc(Nc3n[nH]c4cccnc34)ccc12
EC50 [1]: 0.045 µM
Activity [2]: 64%
IC50 (Cytochrome P450 1A2): < 1 µM

c1cnc2c(Nc3ccc4c(NC5CCC5)nccc4c3)n[nH]c2c1
EC50 [1]: 0.869 µM
Activity [2]: 71%

FC(F)(F)c1nccc2cc(Nc3n[nH]c4cccnc34)ccc12
Activity (Rattus norvegicus [3]): 24%
Kp at 0.25 h [4]: 4.3
EC50 [1]: 0.018 µM
Activity [2]: 77%
half-life [7]: < 1 h

FC1(F)CCN(c2nccc3cc(Nc4n[nH]c5cccnc45)ccc23)C1
EC50 [1]: 0.249 µM
Activity [2]: 75%

c1ccc2cc(Nc3n[nH]c4cccnc34)ccc2c1
EC50 [1]: 0.403 µM
Activity [2]: 79%

Cn1ccc2cc(Nc3n[nH]c4cccnc34)ccc2c1=O
EC50 [1]: > 10 µM
Activity [2]: 30%

c1cnc2c(Nc3ccc4nccnc4c3)n[nH]c2c1
EC50 [1]: > 10 µM

c1cnc2c(Nc3ccc4cnccc4c3)n[nH]c2c1
Vdss [8]: 4.88 L/kg
EC50 [1]: 0.076 µM
Activity [2]: 114%
fraction unbound [5]: 0.046
IC50 (Cytochrome P450 3A4): 0.44 µM
IC50 (Cytochrome P450 2D6): 3.98 µM
Fu [6]: 0.092 fraction
t1/2 [7]: 10.2 h
IC50 (Cytochrome P450 2C9): 1.35 µM
IC50 (Cytochrome P450 1A2): 0.15 µM
Fu [9]: 0.029%

O=c1c2ccc(Nc3n[nH]c4cccnc34)cc2ccn1C1CCCC1
EC50 [1]: 1.73 µM
Activity [2]: 22%

Cn1nccc1-c1nccc2cc(Nc3n[nH]c4cccnc34)ccc12
Kp at 0.25 h [4]: 1.6
EC50 [1]: 0.045 µM
Activity [2]: 78%
Fu [5]: 0.088 fraction
Fu [6]: 0.096 fraction
CLH [10]: 0.69 L/h/kg

c1cnc2ccc(Nc3n[nH]c4cccnc34)cc2c1
EC50 [1]: 0.732 µM
Activity [2]: 42%

c1cnc2c(Nc3ccc4c(N5CCCC5)nccc4c3)n[nH]c2c1
EC50 [1]: 1.69 µM
Activity [2]: 54%

FC(F)(F)c1nccc2cc(Nc3n[nH]c4ncccc34)ccc12
Activity (Rattus norvegicus [3]): 50%
Kp at 0.25 h [4]: 1.5
EC50 [11]: 0.197 µM
EC50 [1]: 0.065 µM
Activity [2]: 93%
IC50 (Cytochrome P450 2C19): 12.5 µM
Emax [12]: 123%
minimal effective dose (Rattus norvegicus [13]): 1 mg/kg

Cn1nc(C(F)(F)F)cc1-c1nccc2cc(Nc3n[nH]c4cccnc34)ccc12
EC50 [1]: 0.132 µM
Activity [2]: 84%

c1cnc2c(Nc3ccc4c(N5CCCCC5)nccc4c3)n[nH]c2c1
EC50 [1]: 0.215 µM
Activity [2]: 74%

c1cnc2c(Nc3ccc4c(-n5cccn5)nccc4c3)n[nH]c2c1
Kp at 0.25 h [4]: 1.37
EC50 [1]: 0.063 µM
Activity [2]: 85%
Fu [5]: 0.046 fraction
IC50 (Cytochrome P450 3A4): 13 µM
IC50 (Cytochrome P450 2D6): 7.2 µM
Fu [6]: 0.09 fraction
IC50 (Cytochrome P450 2C9): 7.3 µM
CLH [10]: 2.14 L/h/kg
IC50 (Cytochrome P450 1A2): 1.5 µM
Fu [9]: 0.029%

Cc1ccn(-c2nccc3cc(Nc4n[nH]c5cccnc45)ccc23)n1
EC50 [1]: 0.237 µM
Activity [2]: 84%
